Data from patent publication US20250186411A1, “Methods of Treating Disorders Associated with Overactivation of IKKB” (The United States Government as represented by the …, priority 2023, published 2025).

Key:
[1] = system: KLF15 promoter (pEZX-FR03hKLF15p human podocytes); assay: KLF15 reporter high-throughput screening assay in human podocytes (firefly/renilla luciferase); format: cell-based; details: for fold induction at 1 µM: Homo sapiens, NCI library hits, 24 hours, read-out: Fold Change (KLF15 reporter activity)
Method: Briefly, these podocytes proliferate under permissive conditions (gamma interferon at 33° C.), but differentiate under nonpermissive conditions (37° C.).
The amplified fragment contains MluI and PmeI RE sites and was subcloned into the MluI and PmeI cloning site of the pEZX-FR03 Firefly luciferase (FLuc) and Renilla luciferase (Rluc) reporter cloning vector (GeneCopoeia) to generate pEZX-FR03hKLF15p. Following verification of the sequence by restriction and μsequencing, the pEZX-FR03hKLF15p construct (which contains a puromycin resistance cassette) was transfected into human podocytes followed by selection in puromycin-containing media for 2 weeks. Surviving podocytes clones were pooled together for further analysis.
The library of compounds from the National Cancer Institute (Approved Oncology Drugs Set VI; Natural Products Set III; Diversity Set V; and Mechanistic Diversity Set II) were added to a final concentration of 1 μM in 0.5% DMSO in the low FBS cell culture media (0.2% FBS) using liquid handling system PipetMax (Gilson). After 24 hours incubation at 37° C., the Luc-Pair™ Duo-Luciferase HT Assay Kit (GeneCopoeia LF015) were used and firefly and renilla luciferase activity was determined using the SpectraMax M3 (Molecular Devices). Positive controls were all-trans retinoic acid (atRA) (1 μM) and dexamethasone (DEX) (1 μM). Negative controls were DMSO and cell-free media.
(§1) To identify small molecule inducers of KLF15 expression in human podocytes, human podocytes were generated with a dual reporter, firefly luciferase directed at the KLF15 promoter region and renilla luciferase (pEZX-FR03hKLF15p). […] The positive controls were inducers of KLF15 expression, dexamethasone (DEX) and all-trans retinoic acid (atRA), and […] and cell-free wells served as negative controls.

[2] = system: KLF15 promoter with mutation in the GRE (pEZX-FR03hKLF5p-mutant podocytes); assay: GR-mutant KLF15 reporter assay; format: cell-based, human; details: as compared to DMSO
[3] = system: KLF15 promoter (pEZX-FR03hKLF5p human podocytes); assay: Lipopolysaccharide treatment in human podocytes, KLF15 reporter activity; format: cell-based; details: as compared to DMSO
Method: (§2) Differentiated pEZX-FR03hKLF5p human podocytes were treated with 25 μg/ml lipopolysaccharide (LPS) or vehicle and 1 μM KLF15 agonist or vehicle control for 24 hours. Firefly and renilla luciferase assay were measured initially to determine relative KLF15 reporter activity.

human podocytes = assay: Cell viability of podocytes (renilla activity, MTS assay); format: cell-based; details: for toxicity to human podocytes: analogue screen
Method: as §2
(§3) Differentiated pEZX-FR03hKLF5p human podocytes were treated with 0.4 μg/ml adriamycin (ADR) or vehicle and 1 μM KLF15 agonist or vehicle control for 24 hours. Firefly and renilla luciferase assay were measured initially to determine relative KLF15 reporter activity.
To assess cell viability, the CellTiter 96® AQueous One Solution Reagent (Promega) was added to the culture media and plates were incubated for 2 hours at 37° C. with 5% CO2.

[4] = system: differentiated human podocytes; assay: Actin stress fiber formation and KLF15 immunocytochemistry; format: cell-based; details: LPS-treated podocytes
Method: To determine actin stress fiber formation, differentiated human podocytes were treated with 25 μg/ml LPS or vehicle and 1 μM KLF15 agonist or vehicle control for 24 hours. Subsequently, podocytes were fixed and stained for F-actin using Alexa Fluor 647 Phalloidin (Life Technologies). Fixation, permeabilization, and staining with phalloidin were performed as per the manufacturer's protocol. […] Briefly, phalloidin staining pattern in each cell was classified into the following types: Type A (90% of cell area filled with thick cables), Type B (no thick cables but some cables present), and Type C (no cables visible in the central area of the cell). Unless specified, 100-200 cells were quantified in a blinded manner for each group in three independent experiments.
Differentiated human podocytes were initially washed with phosphate-buffered saline (PBS) and subsequently fixed with 3.7% formaldehyde in the growth medium. Podocytes were washed and permeabilized with 0.25% Triton X-100, and then blocked in 10% normal horse serum (NHS) and incubated with rabbit anti-KLF15 antibody overnight. The next day, cells were washed with PBS and incubated in Donkey anti-Rabbit IgG (H+L) Secondary Antibody, Alexa Fluor™ 568 (Invitrogen) in 10% NHS. Subsequently, cells were washed and incubated with Hoechst (Thermo Fisher Scientific) before mounting.

[5] = system: KLF15 and Synaptopodin expression; assay: Real-time PCR of KLF15 and synaptopodin in podocytes under LPS; format: cell-based, human; details: podocytes under LPS conditions, vs DMSO
Method: (§4) Total RNA from cells was extracted by using TRIzol (Life Technologies). First-strand cDNA was prepared from total RNA (up to 1.25 μg) using the SuperScript™ IV VILO™ Master Mix (Life Technologies), and cDNA was amplified in triplicate using PowerUp™ SYBR™ Green Master Mix on an ABI QuantStudio3 (Applied Biosystems). Primers for human and mouse genes were designed using NCBI Primer-BLAST and validated for efficiency before application (Table 1). Data were normalized to housekeeping genes (GAPDH or ACTB) and presented as a fold increase compared with RNA isolated from the control group using the ΔΔCT method.

[6] = system: KLF15 promoter (pEZX-FR03hKLF5p human podocytes); assay: Adriamycin treatment in human podocytes, KLF15 reporter activity; format: cell-based; details: as compared to DMSO-treated podocytes
Method: as §3

[7] = system: KLF15 promoter (pEZX-FR03hKLF15p human podocytes); assay: Half maximal effective concentration (EC50) of KLF15 reporter activity; format: cell-based; details: Homo sapiens; KLF15 reporter activity, dose-response; read-out: EC50
Method: The EC50 was determined using nonlinear regression and then choosing the equation of Sigmoidal function, 4PL method (X is log(concentration); or the equation of log(agonist) vs. response—variable slope).
as §1

FVB/n mice = assay: LPS-induced proteinuric murine model; format: in vivo, mouse; details: LPS proteinuric murine model, concurrent treatment, vs DMSO
Method: In the LPS-induced proteinuric model, all 8-week-old FVB/n mice were initially treated with LPS [intraperitoneal (IP), 10 μg/g, Sigma-Aldrich] or sterile normal saline (IP) at 0- and 24-hour time points as previously described (17). […] Urine was collected and mice were euthanized 48 hours post-LPS treatment.
Urine albumin was quantified by ELISA using a kit from Bethyl Laboratory Inc. Urine creatinine levels were measured in the same samples using the Creatinine Colorimetric Assay Kit (500701; Cayman Chemical) as per manufacturer's protocol.
Briefly, mice were perfused with PBS containing 2.5 mg/ml iron oxide and 1% BSA. At the end of perfusion, kidneys were removed, decapsulated, minced into 1 mm^3 pieces, and digested in PBS containing 1 mg/ml collagenase A. Digested tissue was subsequently passed through a 100 μm cell strainer and collected by centrifugation. The pellet was resuspended in 1 ml PBS and glomeruli were collected using a magnet. The purity of glomeruli was verified under microscopy. Total RNA was isolated from kidney glomeruli of mice using the RNeasy Kit (Qiagen, Germantown, MD).
as §4
Transmission Electron Microscopy (TEM) was done in the Central Microscopy Imaging Center at Stony Brook Medicine. Briefly, after embedding the kidney tissues in epoxy resin, ultrathin sections were stained with uranyl acetate and lead citrate, then mounted on a copper grid, and photographed under a FEI BioTwin G2 Transmission Electron Microscope with AMT XR-60 CCD digital Camera (FEI).

[8] = as compared to DMSO-treated podocytes

Row | KLF15 activity as compared to DEX-treated podocytes [1] | EC50 [7] | SMILES | KLF15-mutant reporter activity [2] | KLF15 activity in the setting of LPS treatment [3] | toxicity to human podocytes (human podocytes) | renilla activity (cell viability) in the setting of LPS treatment (human podocytes; [8]) | fold induction at 1 µM [1] | KLF15 expression and actin stress fiber formation (immunostaining) [4] | KLF15 and Synaptopodin expression [5] | KLF15 activity in the setting of adriamycin (ADR) [6] | albuminuria (FVB/n mice) | cell viability (renilla activity and MTT assay) in the setting of ADR (human podocytes; [8]) | renilla activity in dose-response (human podocytes; higher doses (10^4 nM), relative to DMSO)
1 | higher KLF15 activity | – | CSc1ccc(NC(=O)c2ccc(O)cc2)cc1 [BT501] | induced KLF15 activity | maintained the elevated KLF15 activity | no observed toxicity | – | – | – | – | – | – | – | –
2 | higher KLF15 activity | – | CSc1ccc(NC(=O)Nc2ccc(C#N)cn2)cc1 [BT502] | induced KLF15 activity | maintained the elevated KLF15 activity | no observed toxicity | restored renilla activity | – | – | – | – | – | – | –

Further lines, the molecule ahead of its results:

Row | SMILES | KLF15 activity as compared to DEX-treated podocytes [1] | EC50 [7] | KLF15-mutant reporter activity [2] | KLF15 activity in the setting of LPS treatment [3] | toxicity to human podocytes (human podocytes) | renilla activity (cell viability) in the setting of LPS treatment (human podocytes; [8]) | fold induction at 1 µM [1] | KLF15 expression and actin stress fiber formation (immunostaining) [4] | KLF15 and Synaptopodin expression [5] | KLF15 activity in the setting of adriamycin (ADR) [6] | albuminuria (FVB/n mice) | cell viability (renilla activity and MTT assay) in the setting of ADR (human podocytes; [8]) | renilla activity in dose-response (human podocytes; higher doses (10^4 nM), relative to DMSO)
3 | CSc1ccc(NC(=O)Nc2cc(C)ccn2)cc1 [C-7, 1-(4-Methylpyridin-2-yl)-3-(4-methylsulfanylphenyl)urea] | – | 11.9 nM | induced similar KLF15 activity | maintained KLF15 activity | – | – | 3.17 | restored KLF15 expression and actin stress fiber formation | restored | induced KLF15 activity | significantly abrogated albuminuria | maintained | significant increase in renilla activity
4 | Nc1ccccc1-n1nc2ccc3ccccc3c2n1 [C-9, 2-benzo[e]benzotriazol-2-ylaniline] | – | 76.3 nM | induced similar KLF15 activity | – | – | – | 2.72 | – | – | induced KLF15 activity | – | – | –
5 | O=C(Nc1ccc2ccccc2c1)c1ccc(Cl)cc1Cl [C-15, 2,4-dichloro-N-(naphthalen-2-yl)benzamide] | – | 10.9 nM | induced similar KLF15 activity | – | – | – | 2.97 | – | – | induced KLF15 activity | – | – | –
